# Reference: US20230323410A1, “BACTERIAL CELLS AND METHODS FOR PRODUCTION OF 2-FLUORO-CIS,CIS-MUCONATE” (priority 2020, published 2023)
# “Also recorded” adds a separate entry of the source. Like-named read-outs stand apart in the source and are kept apart here.
# Key:
# P. knackmussii [1] = test: Microtiter plate cultivation: growth with metabolites of the bioconversion; conditions: for growth rate as share of the μmax observed on only glucose: 15 mM
# P. putida KT2440 = conditions: for growth rate as share of the maximum rate on glucose: 20 mM
# Pmuc3 pSEVA228 = assay type: cell-based, Pseudomonas putida
# P. knackmussii [2] = test: Shaken flask fermentation with 10 mM 2-FBz or 3-FBz; assay type: cell-based, Pseudomonas knackmussii
# CatR/Pcat = assay type: cell-based, P. putida KT2440
# XylS/Pm = assay type: cell-based, P. putida KT2440; conditions: for GFP expression from Pm relative to the one brought about by 1.0 mM 3-mBz: 5.0 mM inducer; for GFP expression under Pm(ML1-17) control relative to the expression provided by Pm: compound as inducer
# BenR/Pben = assay type: cell-based, P. putida KT2440; conditions: for increase of induction compared to the uninduced system: 5 mM
# Pmuc10 = test: Microtiter plate cultivation: growth with metabolites of the bioconversion; conditions: for Maximum growth rate μmax: Example 6 (improved method)
# [3] = Example 1, 30 mM glucose, 0.5 mM additive
# [4] = Example 1, 30 mM glucose, 1.0 mM additive
# [5] = Example 1, 30 mM glucose, 2.0 mM additive
# [6] = Example 6 (improved method), 30 mM glucose, 0.5 mM additive
# [7] = Example 6 (improved method), 30 mM glucose, 1.0 mM additive
# [8] = Example 6 (improved method), 30 mM glucose, 2.0 mM additive
# [9] = Example 6 (improved method), 30 mM glucose, 5.0 mM additive
# [10] = Example 1, 30 mM glucose, 5.0 mM additive
# [11] = Example 1, 30 mM glucose, 10 mM additive
# [12] = Example 1, 30 mM glucose, 15 mM additive
# [13] = Example 1, 30 mM glucose, 20 mM additive
# [14] = Example 6 (improved method), 30 mM glucose, 10 mM additive
# [15] = Example 6 (improved method), 30 mM glucose, 15 mM additive
# [16] = Example 6 (improved method), 30 mM glucose, 20 mM additive
# [17] = Example 1, 30 mM as sole carbon source
# [18] = Example 6 (improved method), 30 mM as sole carbon source
smiles,measurement,setting,value
"Oc1ccc(F)cc1O [Strain 4-FC, 4-fluorocatechol]",Maximum growth rate μmax,P. knackmussii [1]; [3],0.34 h⁻¹
same,Maximum growth rate μmax,P. knackmussii [1]; [4],0.32 h⁻¹
same,Maximum growth rate μmax,P. knackmussii [1]; [5],0.25 h⁻¹
same,Maximum growth rate μmax,P. knackmussii [1]; [6],0.31 h⁻¹
same,Maximum growth rate μmax,P. knackmussii [1]; [7],0.26 h⁻¹
same,Maximum growth rate μmax,P. knackmussii [1]; [8],0.17 h⁻¹
same,Maximum growth rate μmax,P. putida KT2440; [3],0.77 h⁻¹
same,Maximum growth rate μmax,P. putida KT2440; [4],0.64 h⁻¹
same,Maximum growth rate μmax,P. putida KT2440; [5],0.48 h⁻¹
same,Maximum growth rate μmax,P. putida KT2440; [6],0.72 h⁻¹
same,Maximum growth rate μmax,P. putida KT2440; [7],0.52 h⁻¹
same,Maximum growth rate μmax,P. putida KT2440; [8],0.34 h⁻¹
same,Maximum growth rate μmax,P. putida KT2440; [9],no growth
same,Maximum growth rate μmax,Pmuc3 pSEVA228; [3],0.55 h⁻¹
same,Maximum growth rate μmax,Pmuc3 pSEVA228; [4],0.54 h⁻¹
same,Maximum growth rate μmax,Pmuc3 pSEVA228; [5],0.35 h⁻¹
same,Maximum growth rate μmax,Pmuc3 pSEVA228; [6],0.55 h⁻¹
same,Maximum growth rate μmax,Pmuc3 pSEVA228; [7],0.50 h⁻¹
same,Maximum growth rate μmax,Pmuc3 pSEVA228; [8],0.28 h⁻¹
"O=C(O)c1cccc(F)c1 [Strain 3-FBz, 3-fluorobenzoic acid]",qs,"P. knackmussii [2]; 10 mM 3-FBz, Example 1",0.090 mmol gCDW^−1 h^−1
same,qs,"P. knackmussii [2]; 10 mM 3-FBz, Example 6",1.01 mmol gCDW^−1 h^−1
same,induction,CatR/Pcat; 0.5 mM,most strongly and fully induced
same,expression strength,XylS/Pm; 1.0 mM,"close to the basal, uninduced expression"
same,GFP expression from Pm relative to the one brought about by 1.0 mM 3-mBz,XylS/Pm,7%
same,GFP expression under Pm(ML1-17) control relative to the expression provided by Pm,XylS/Pm,70%
same,Maximum growth rate μmax,P. knackmussii [1]; [10],almost completely impaired
same,Maximum growth rate μmax,"P. knackmussii [1]; Example 1, 30 mM glucose, 5.0 mM additive, listed as K-3-F-benzoate",0.01 h⁻¹
same,Maximum growth rate μmax,P. knackmussii [1]; [11],no growth
same,Maximum growth rate μmax,P. knackmussii [1]; [12],no growth
same,Maximum growth rate μmax,P. knackmussii [1]; [13],no growth
same,Maximum growth rate μmax,P. knackmussii [1]; [9],almost completely impaired
same,Maximum growth rate μmax,"P. knackmussii [1]; Example 6 (improved method), 30 mM glucose, 5.0 mM additive, listed as K-3-F-benzoate",0.04 h⁻¹
same,Maximum growth rate μmax,P. knackmussii [1]; [14],no growth
same,Maximum growth rate μmax,P. knackmussii [1]; [15],no growth
same,Maximum growth rate μmax,P. knackmussii [1]; [16],no growth
same,maximum concentration in the presence of which the strain was able to grow,"P. putida KT2440; 30 mM glucose, substantially reduced μmax",10 mM
same,Maximum growth rate μmax,P. putida KT2440; [10],0.36 h⁻¹
same,Maximum growth rate μmax,P. putida KT2440; [11],0.13 h⁻¹
same,Maximum growth rate μmax,P. putida KT2440; [12],no growth
same,Maximum growth rate μmax,P. putida KT2440; [13],no growth
same,Maximum growth rate μmax,P. putida KT2440; [9],0.25 h⁻¹
same,Maximum growth rate μmax,P. putida KT2440; [14],0.13 h⁻¹
same,Maximum growth rate μmax,P. putida KT2440; [15],no growth
same,Maximum growth rate μmax,Pmuc3 pSEVA228; [11],0.33 h⁻¹
same,Maximum growth rate μmax,Pmuc3 pSEVA228; [12],0.32 h⁻¹
same,Maximum growth rate μmax,Pmuc3 pSEVA228; [13],0.30 h⁻¹
same,Maximum growth rate μmax,Pmuc3 pSEVA228; [14],0.33 h⁻¹
same,Maximum growth rate μmax,Pmuc3 pSEVA228; [15],0.32 h⁻¹
same,Maximum growth rate μmax,Pmuc3 pSEVA228; [16],0.30 h⁻¹
same,increase in GFP expression over basal expression,BenR/Pben; 1.0 mM,No further increase
same,increase of induction compared to the uninduced system,BenR/Pben,70%
same,concentration up to which no toxic effects were observed,"Pmuc10; 30 mM glucose, FIG. 13",≤ 20 mM
same,highest concentration at which the strain was able to produce biomass,"Pmuc10; 30 mM glucose, FIG. 13, strongly reduced rate and maximum biomass concentration",≤ 50 mM
same,Maximum growth rate μmax,"Pmuc10; 30 mM glucose, 10 mM additive",0.45 h⁻¹
same,Maximum growth rate μmax,"Pmuc10; 30 mM glucose, 20 mM additive",0.47 h⁻¹
same,Maximum growth rate μmax,"Pmuc10; 30 mM glucose, 30 mM additive",0.27 h⁻¹
same,Maximum growth rate μmax,"Pmuc10; 30 mM glucose, 40 mM additive",0.24 h⁻¹
same,Maximum growth rate μmax,"Pmuc10; 30 mM glucose, 50 mM additive",0.20 h⁻¹
"O=C([O-])c1ccccc1.[K+] [K-benzoate, potassium benzoate]",GFP fluorescence as compared to the induction by 3-FBz,CatR/Pcat; 5 mM,35%
same,GFP expression from Pm relative to the one brought about by 1.0 mM 3-mBz,XylS/Pm,20%
same,Maximum growth rate μmax,P. knackmussii [1]; [17],no growth
same,Maximum growth rate μmax,P. knackmussii [1]; [18],no growth
same,Maximum growth rate μmax,P. putida KT2440; [17],0.37 h⁻¹
same,Maximum growth rate μmax,P. putida KT2440; [18],0.62 h⁻¹
same,Maximum growth rate μmax,"Pmuc3 pSEVA228; Example 1, 30 mM K-benzoate as carbon source, 0.5 mM 3-mBz",0.16 h⁻¹
same,Maximum growth rate μmax,"Pmuc3 pSEVA228; Example 6 (improved method), 30 mM K-benzoate as carbon source, 0.5 mM 3-mBz",0.16 h⁻¹
same,increase in GFP expression over basal expression,BenR/Pben; 2.0 mM,No further increase
same,increase of induction compared to the uninduced system,BenR/Pben,70%
same,Maximum growth rate μmax,Pmuc10; 30 mM as sole carbon source,0.53 h⁻¹
"O=C(O)c1ccccc1F [Strain 2-FBz, 2-fluorobenzoic acid]",qs,"P. knackmussii [2]; 10 mM 2-FBz, initial about 20 h, Example 1",0.26 mmol gCDW^−1 h^−1
same,qs,"P. knackmussii [2]; 10 mM 2-FBz, initial about 20 h, Example 6",0.81 mmol gCDW^−1 h^−1
same,growth rate as share of the μmax observed on only glucose,P. knackmussii [1]; Example 1,58%
same,Maximum growth rate μmax,P. knackmussii [1]; [11],0.25 h⁻¹
same,Maximum growth rate μmax,P. knackmussii [1]; [12],0.22 h⁻¹
same,Maximum growth rate μmax,P. knackmussii [1]; [13],unable to grow at all
same,Maximum growth rate μmax,"P. knackmussii [1]; Example 1, 30 mM glucose, 20 mM additive, listed as K-2-F-benzoate",no growth
same,Maximum growth rate μmax,P. knackmussii [1]; [14],0.25 h⁻¹
same,Maximum growth rate μmax,P. knackmussii [1]; [15],0.19 h⁻¹
same,Maximum growth rate μmax,P. knackmussii [1]; [16],unable to grow at all
same,Maximum growth rate μmax,"P. knackmussii [1]; Example 6 (improved method), 30 mM glucose, 20 mM additive, listed as K-2-F-benzoate",no growth
same,growth rate as share of the μmax observed on only glucose,P. knackmussii [1]; Example 6,54%
same,growth rate as share of the maximum rate on glucose,P. putida KT2440; Example 1,80%
same,Maximum growth rate μmax,P. putida KT2440; [11],0.57 h⁻¹
same,Maximum growth rate μmax,P. putida KT2440; [12],0.53 h⁻¹
same,Maximum growth rate μmax,P. putida KT2440; [13],0.48 h⁻¹
same,Maximum growth rate μmax,P. putida KT2440; [14],0.56 h⁻¹
same,Maximum growth rate μmax,P. putida KT2440; [15],0.52 h⁻¹
same,Maximum growth rate μmax,P. putida KT2440; [16],0.46 h⁻¹
same,growth rate as share of the maximum rate on glucose,P. putida KT2440; Example 6,53%
"Oc1ccccc1O [catechol, pyrocatechol]",Maximum growth rate μmax,P. knackmussii [1]; [3],0.36 h⁻¹
same,Maximum growth rate μmax,P. knackmussii [1]; [4],0.33 h⁻¹
same,Maximum growth rate μmax,P. knackmussii [1]; [5],0.31 h⁻¹
same,Maximum growth rate μmax,P. knackmussii [1]; [6],0.36 h⁻¹
same,Maximum growth rate μmax,P. knackmussii [1]; [7],0.33 h⁻¹
same,Maximum growth rate μmax,P. knackmussii [1]; [8],0.29 h⁻¹
same,toxic effect,P. knackmussii [1]; up to 2 mM,slightly toxic effect; also recorded: Only a little toxic effect
same,Maximum growth rate μmax,P. putida KT2440; [3],0.72 h⁻¹
same,Maximum growth rate μmax,P. putida KT2440; [4],0.77 h⁻¹
same,Maximum growth rate μmax,P. putida KT2440; [5],0.78 h⁻¹
same,increase of μmax with increasing concentration,"P. putida KT2440; Example 1, up to 2 mM",up to 30%
same,Maximum growth rate μmax,P. putida KT2440; [6],0.69 h⁻¹
same,Maximum growth rate μmax,P. putida KT2440; [7],0.71 h⁻¹
same,Maximum growth rate μmax,P. putida KT2440; [8],0.68 h⁻¹
same,Maximum growth rate μmax,Pmuc3 pSEVA228; [5],0.86 h⁻¹
same,Maximum growth rate μmax,Pmuc3 pSEVA228; [6],0.62 h⁻¹
same,Maximum growth rate μmax,Pmuc3 pSEVA228; [7],0.74 h⁻¹
same,Maximum growth rate μmax,Pmuc3 pSEVA228; [8],0.81 h⁻¹
"Oc1cccc(F)c1O [Strain 3-FC, 3-fluorocatechol]",Maximum growth rate μmax,P. knackmussii [1]; [3],0.28 h⁻¹
same,Maximum growth rate μmax,P. knackmussii [1]; [4],0.17 h⁻¹
same,Maximum growth rate μmax,P. knackmussii [1]; [5],0.11 h⁻¹
same,Maximum growth rate μmax,P. knackmussii [1]; [6],0.32 h⁻¹
same,Maximum growth rate μmax,P. knackmussii [1]; [7],0.31 h⁻¹
same,Maximum growth rate μmax,P. knackmussii [1]; [8],0.12 h⁻¹
same,Maximum growth rate μmax,P. putida KT2440; [3],0.72 h⁻¹
same,Maximum growth rate μmax,P. putida KT2440; [4],0.65 h⁻¹
same,Maximum growth rate μmax,P. putida KT2440; [5],0.39 h⁻¹
same,Maximum growth rate μmax,P. putida KT2440; [6],0.71 h⁻¹
same,Maximum growth rate μmax,P. putida KT2440; [7],0.68 h⁻¹
same,Maximum growth rate μmax,P. putida KT2440; [8],0.36 h⁻¹
same,Maximum growth rate μmax,P. putida KT2440; [9],no growth
same,Maximum growth rate μmax,Pmuc3 pSEVA228; [3],0.61 h⁻¹
same,Maximum growth rate μmax,Pmuc3 pSEVA228; [4],0.48 h⁻¹
same,Maximum growth rate μmax,Pmuc3 pSEVA228; [5],0.22 h⁻¹
same,Maximum growth rate μmax,Pmuc3 pSEVA228; [6],0.74 h⁻¹
same,Maximum growth rate μmax,Pmuc3 pSEVA228; [8],0.22 h⁻¹
same,Maximum growth rate μmax,"Pmuc10; 30 mM glucose, 2.0 mM additive",no growth
"Cc1cccc(C(=O)O)c1 [Strain 3-mBz, 3-methyl benzoate, reference compound]",response,CatR/Pcat; 1.0 mM,no response at all
same,GFP expression under Pm(ML1-17) control relative to the expression provided by Pm,XylS/Pm,70%
same,induction by 1 mM as compared to 5 mM of the inducer,XylS/Pm; data not shown,94%
same,increase in GFP expression over basal expression,BenR/Pben; 1.0 mM,No further increase
